Molecular target: T1, dopamine D3 receptor (Homo sapiens, UniProt P35462)
T1 construct: host or cells: Chinese Hamster Ovary (CHO) cells, membranes
Assay: GTPS scintillation proximity assay (GTPS-SPA), CHO_D3 membranes, antagonist format
Type: biochemical
Method: Functional potency of compounds of this invention can be measured by the following GTPS scintillation proximity assay (GTPS-SPA). Cells used in the study are Chinese Hamster Ovary (CHO) Cells. • Cell Line • CHO_D2 • CHO_D3 • Dopamine CHO D3 (Biocat no 1060) transduced with bacmam G0 G-protein (Biocat no 97886)
All steps are performed at 4° C. Cell membranes are prepared as follows. Cell pellets are resuspended in 10 volumes of 50 mM HEPES, 1 mM EDTA pH 7.4, using KOH. Cells are homogenised within a glass waring blender for 2 bursts of 15 secs in 200 mls of buffer (50 mM HEPES, 1 mM leupeptin, 25 μg/ml bacitracin, 1 mM EDTA, 1 mM PMSF, 2 μM Pepstatin A). (the latter 2 reagents added as fresh ×100 and ×500 stocks respectively in ethanol). The blender is plunged into ice for 5 mins after the first burst and 10-40 mins after the final burst to allow foam to dissipate. The material is then spun at 500 g for 20 mins and the supernatant spun for 36 mins at 48.000 g. The pellet is resuspended in the same buffer as above but without PMSF and Pepstatin A. The material is then forced through a 0.6 mm needle, made up to the required volume, (usually ×4 the volume of the original cell pellet), aliquoted and stored frozen at −80° C.
The final top concentration of test drug is 3 μM in the assay and 11 points serial dilution curves 1:4 in 100% DMSO are carried out using a Biomek FX. The test drug at 1% (0.5 ul) total assay volume (TAV) is added to a solid, white Greiner polypropylene 384-well assay plate. 50% TAV (25 μl) of precoupled (for 60 mins at RT) membranes, 5 μg/well, and Wheatgerm Agglutinin Polystyrene Scintillation Proximity Assay beads (RPNQ0260, Amersham), 0.25 mg/well, in 20 mM HEPES (pH 7.4, 100 mM NaCl, 10 mM MgCl2), 60 μg/mL saponin and 30 uM GDP is added. The third addition is a 20% TAV (10 ul) addition of either buffer, (agonist format) or EC80 final assay concentration of agonist, Quinelorane, prepared in assay buffer (antagonist format). The assay is started by the addition of 29% TAV (15 ul) of GTP[35S] 0.38 nM final (37 MBq/mL, 1160 Ci/mmol, Amersham). After all additions assay plates are spun down for 1 min at 1,000 rpm. The final assay cocktail ([…]) is incubated at room temperature to equilibrate for 3-6 hours before reading on a ViewLux™ (613/55 filter) luminescence imager 5 min/plate.
The effect of the test drug over the basal generates fpKi values of test drug are calculated from the IC50 generated by “antagonist format” experiment, using Cheng & Prusoff equation: fKi=IC50/1+([A]/EC50) where: [A] is the concentration of the agonist Quinelorane in the assay and EC50 is the Quinelorane EC50 value obtained in the same experiment. fpKi is defined as −logfKi. • pKi results are only estimated to be accurate to about 0.3-0.5.

T1 sequence (P35462 whole entry, species assumed): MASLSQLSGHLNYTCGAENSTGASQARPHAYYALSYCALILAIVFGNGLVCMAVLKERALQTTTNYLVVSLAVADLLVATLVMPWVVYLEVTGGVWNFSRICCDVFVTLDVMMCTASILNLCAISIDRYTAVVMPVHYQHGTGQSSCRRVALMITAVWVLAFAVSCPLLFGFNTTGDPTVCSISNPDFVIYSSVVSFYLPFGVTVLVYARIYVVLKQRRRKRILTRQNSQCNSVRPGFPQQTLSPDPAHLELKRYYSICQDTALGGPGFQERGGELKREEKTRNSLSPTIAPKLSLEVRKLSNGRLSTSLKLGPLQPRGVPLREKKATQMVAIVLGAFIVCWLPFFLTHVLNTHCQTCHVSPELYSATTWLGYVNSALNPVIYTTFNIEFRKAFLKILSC

Row | Selectivity for D3 over D2 receptors [fold] | Compound
1 | 100 | Cl.Cl.O=c1[nH]c(=O)n(CCCN2C[C@@H]3C[C@]3(c3ccc(C(F)(F)F)cc3)C2)cc1-c1cc(Cl)cnc1F [Example E43, 5-(5-chloro-2-fluoro-3-pyridinyl)-1-(3-{(1S,5R)-1-[4-(trifluoromethyl)phenyl]-3-azabicyclo[3.1.0]hex-3-yl}propyl)-2,4(1H,3H)-pyrimidinedione dihydrochloride]
2 | 251 | Cl.Cl.O=c1[nH]c(=O)n(CCCN2C[C@@H]3C[C@]3(c3ccc(C(F)(F)F)cc3)C2)cc1-c1cccnc1 [Example E27, 5-(3-pyridinyl)-1-(3-{(1S,5R)-1-[4-(trifluoromethyl)phenyl]-3-azabicyclo[3.1.0]hex-3-yl}propyl)-2,4(1H,3H)-pyrimidinedione dihydrochloride]

Reference: US7727988B2, “Azabicyclo[3.1.0]hex-3-yl}alkyl)pyrimidinedione” (Glaxo Group Limited, priority 2006, dated 2010)
